Reference: patent US20170333390A1, “PHYTOCHEMICAL COMPOSITIONS INCLUDING SESAMIN FOR ANTI-INFLAMMATORY, ANTI-CYTOKINE STORM, AND OTHER USES” (CHIANG MAI UNIVERSITY, priority 2009, published 2017)

System: cartilage tissue cultures exposed to IL-1 (ECM degradation, HA release)
Assay: HA release from IL-1 exposed cartilage tissue cultures (ELISA)
Assay type: cell-based
Conditions: relative to control culture, sulfate
Method: Experiments were conducted to evaluate the anti-inflammatory effects of combinations of particular phytochemical compositions provided by the present disclosure with known substances, compositions, or drugs that are associated with an anti-inflammatory effect and/or an anti-degenerative or tissue integrity preservation effect in connective tissue. In the context of the present disclosure, the term “connective tissue” encompasses connective tissue proper (e.g., dense or fibrous connective tissue), as well as specialized connective tissue such as cartilage or bone. More specifically, experiments were conducted to evaluate the anti-inflammatory, anti-degenerative, and/or structural preservation effects of a combination of particular phytochemical compositions provided by the present disclosure with glucosamine sulfate. In addition, the experiments compared the anti-inflammatory/anti-degenerative effects of the combination of particular sesamin or sesamin-based phytochemical compositions provided by the present disclosure plus glucosamine sulfate, versus the anti-inflammatory/anti-degenerative effects of glucosamine sulfate alone.
Hyaluronic acid (HA) is an important component of the extracellular matrix (ECM), as well as a major component of synovial fluid. HA is present in articular cartilage, and contributes to cartilage resilience. It is known that IL-1 stimulates the synthesis and activity of matrix metalloproteinases and other enzymes that are associated with cartilage degradation as well as rheumatoid arthritis and osteoarthritis. A set of experimental cartilage tissue cultures were prepared using cartilage tissue samples containing HA within their ECMs. As further detailed below, the experimental cartilage tissue cultures selectively incorporated glucosamine sulfate alone; sesamin alone; or a combination of glucosamine sulfate and sesamin. Additionally, a control cartilage tissue culture remained unexposed to either of sesamin or glucosamine sulfate.
ECM degradation was induced in the experimental and control cartilage tissue cultures by exposing the cultures to IL-1. A measure or estimate of a cartilage tissue anti-degenerative effect was defined in accordance with an amount of HA that an experimental cartilage tissue culture released into the tissue culture medium relative to a reference or baseline amount of HA that was released into the tissue culture medium by the control cartilage tissue culture. More particularly, a percentage reduction in the amount of HA released into the tissue culture medium by a given experimental cartilage tissue culture relative to the amount of HA released into the tissue culture medium by the control cartilage tissue culture, indicated below as “Percentage (%) HA Reduction”, conveys or indicates the magnitude of an anti-degenerative or structural preservation effect provided by the experimental cartilage tissue culture under consideration. A corresponding measure or estimate of percentage (%) HA retention by cartilage tissue can also be defined based upon the experimental results. The amount or level of HA present in a given tissue culture medium was detected using ELISA, in a manner that can be understood by one of ordinary skill in the art.

## N[C@H]1C(O)O[C@H](CO)[C@@H](O)[C@@H]1O.O=S(=O)(O)O (stereo partly drawn) [Glucosamine Sulfate, glucosamine sulfate, reference compound]
Glucosamine sulfate 20 mM (9 mg/ml), listed as glucosamine sulfate
  Percentage (%) HA Reduction: approximately 3%
Glucosamine sulfate 20 mM (9 mg/ml)
  Percentage (%) HA Reduction: 3%
Glucosamine sulfate 40 mM (18 mg/ml), listed as glucosamine sulfate
  Percentage (%) HA Reduction: approximately 28%
Glucosamine sulfate 40 mM (18 mg/ml)
  Percentage (%) HA Reduction: 28%
Glucosamine sulfate 80 mM (36 mg/ml), listed as glucosamine sulfate
  Percentage (%) HA Reduction: approximately 43%
Glucosamine sulfate 80 mM (36 mg/ml)
  Percentage (%) HA Reduction: 43%
